Columns and labels:
[1] = tested on: NLRP3 inflammasome, IL-1β in iPSC-derived microglia; experiment: iPSC-derived microglia in vitro assay, secreted IL-1β; format: cell-based; details: for IC50: Microglia, geometric mean, n = 5
Description: (§1) iPSC-derived microglia (BX-0900, BrainXell, Madison, WI) were thawed and recovered as per the supplier’s instructions. Briefly, viable cells were counted post-thaw using Trypan Blue, 0.4% (Thermo Fisher Scientific) and 25,000 cells were seeded on poly-d-lysine coated 96-well plates in DMEM-F/12 medium (Thermo Fisher Scientific) supplemented with 1X B-27 supplement (Thermo Fisher Scientific), 1X N-2 supplement (Thermo Fisher Scientific), 1X Non-essential amino acids (Thermo Fisher Scientific), 1X Chemically defined lipid mix (Thermo Fisher Scientific), 1 mM GlutaMax (Thermo Fisher Scientific), 0.2 mM Ascorbic Acid (Millipore), 100 ng/mL IL-34 (PeproTech, Cranbury, NJ), 2 ng/mL TGF-β1 (PeproTech) and 20 ng/mL M-CSF (PeproTech). Fresh media was added 3 days after seeding, half of which was replenished with fresh media 6 days following seeding. The assay was performed 7 days after cells were seeded in 96-well plates. Two assay protocol variations were performed: cells were either pre-treated with VEN-02XX to block NLRP3 inflammasome formation and then primed with LPS (Fig. 1, D. Compound added before LPS priming) or were primed with LPS and then treated with VEN-02XX (Fig. 1, D. Compound added after LPS priming). For compound treatment, cells were treated with VEN-02XX for 1 h (top concentration 100 µM; 3-fold titration) to block NLRP3 inflammasome formation. For LPS priming, cells were primed with 100 ng/mL LPS (E.coli O26:B6, Millipore) for 4 h. At the end of either protocol, cells were stimulated with 10 uM Nigericin (Millipore) for 1 h, after which conditioned media was collected for analysis of secreted IL-1β, IL-18 and TNFα in an electrochemiluminescence immunoassay (Mesoscale Discovery).

[2] = tested on: NLRP3 inflammasome, IL-18 in iPSC-derived microglia; experiment: iPSC-derived microglia in vitro assay, secreted IL-18; format: cell-based; details: geometric mean, n = 5
Description: as §1, with “For LPS priming, cells were primed with 100 ng/mL LPS (E.coli O26:B6, Millipore) for 4 h. At the end of either protocol, cells were stimulated with 10 uM Nigericin (Millipore) for 1 h, after which conditioned media was collected for analysis of secreted IL-1β, IL-18 and TNFα in an electrochemiluminescence immunoassay (Mesoscale Discovery).” left out

[3] = tested on: TNFα in iPSC-derived microglia; experiment: iPSC-derived microglia in vitro assay, secreted TNFα (specificity); format: cell-based; details: for IC50: Microglia
Description: as §1

5XFAD/Rubicon KO mice [4] = experiment: Sucrose preference test in 5XFAD/Rubicon KO mice; format: in vivo, mouse
Description: (§2) 5XFAD/Rubicon KO mice received vehicle (0.5% w/v methylcellulose/0.1% w/v Tween® 80 in water) or VEN-02XX (0.01, 1, or 20 mg/kg) every day by oral gastric gavage for 9 weeks.
Basal preference to sucrose was first assessed on all enrolled mice. Individually housed mice were acclimated to the testing room for 48 h and to the two-bottle setup, where both bottles contained water, for 3 days. A 2% sucrose solution replaced the water in one bottle, and water consumption was measured for 4 consecutive days, while rotating the position of the sucrose-containing bottle. At the end of the testing period, both bottles were measured, and sucrose preference was calculated by dividing the intake from the sucrose bottle by the intake from both bottles, expressed as the percentage of sucrose preference. Preference to sucrose was re-assessed at 6- and 9-weeks following dosing with VEN-02XX. The test was performed as described above, with one bottle switched for 3% sucrose water. As before, bottles were rotated daily to reduce bias and leakage concerns, and the consumption was monitored for 4 days.

5XFAD/Rubicon KO mice [5] = experiment: Spontaneous alternation (Y-maze) in 5XFAD/Rubicon KO mice; format: in vivo, mouse
Description: as §2
Spontaneous alternation was measured in a standard Y-maze setup. Mice were acclimated to the testing room for 48 h. In each 5-min trial, percent spontaneous alternation was measured as […][32]. Any mouse with less than 5 arm entries during the 5 min trial was excluded from the analysis.

[6] = compound added after LPS priming
[7] = compound added before LPS priming

Question: `CC(C)(O)CNc1nnc(-c2ccc(Cl)cc2C(F)(F)F)c2ccncc12` [VEN-02XX] was tested. Which IC50 [1, 6] did it give?
Answer: The IC50 was 250 nM.

Question: And the IC50 [1, 7]?
Answer: The IC50 was 300 nM.

Question: What about the “potency of NLRP3 inhibition in iPSC-derived microglia” value ([1]; in words) of the same compound?
Answer: The value was “sub-micromolar potency”.

Question: And the IC50 [2, 6]?
Answer: The IC50 was 220 nM.

Question: And the IC50 [2, 7]?
Answer: Its IC50 is 280 nM.

Question: What about the IC50 [3, 6] of the same compound?
Answer: The IC50 was over 10 µM.

Question: What about the IC50 [3, 7] of the same compound?
Answer: The IC50 was over 30 µM.

Question: What about the “TNFα inhibition in cellular assay” value ([3]; specificity, in words) of the same compound?
Answer: Its value is “lack of TNFα inhibition”.

Question: What about the water consumption (5XFAD/Rubicon KO mice [4]; 6 and 9 weeks, sucrose preference test) of the same compound?
Answer: Its water consumption is “no changes in water consumption”.

Question: What about the “sucrose preference (anhedonia)” value (5XFAD/Rubicon KO mice [4]; 6 weeks post-dose initiation, 20 mg/kg PO QD) of the same compound?
Answer: Its value is “significant improvement”.

Question: What about the “sucrose preference (anhedonia)” value (5XFAD/Rubicon KO mice [4]; 6 weeks post-dose initiation, lower doses (0.01, 1 mg/kg) PO QD) of the same compound?
Answer: Its value is “trending reversal in the pre-dosing anhedonia”.

Question: And the “sucrose preference (anhedonia)” value (5XFAD/Rubicon KO mice [4]; 9 weeks, 1 mg/kg and 20 mg/kg PO QD, dose-dependent)?
Answer: The value was “significant improvements”.

Question: And the “spontaneous alternation (Y-maze)” value (5XFAD/Rubicon KO mice [5]; 9 weeks, 0.01, 1, 20 mg/kg PO QD vs vehicle)?
Answer: The value was “striking dose-dependent improvement”.

Question: And the “spontaneous alternation (Y-maze), learning and memory” value (5XFAD/Rubicon KO mice [5]; 9 weeks, 20 mg/kg PO QD)?
Answer: The value was “restoration of learning and memory to near wild type control levels for most animals”.
